Test results published in patent publication US12459930B2, “Compounds for the inhibition of unregulated cell growth” (GODAVARI BIOREFINERIES LIMITED, priority 2018, dated 2025).
Read-outs that look alike come from different tables or passages of the source.

Columns and labels:
[1] = test system: DU145 prostate cancer cell line; test: In vitro antiproliferative assay (MTT assay), DU145; assay type: cell-based; settings: 48 hrs drug incubation, read-out: IC50 in micromolar, DU145 (MTT assay)
Outline: (§1)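 Viability is derived from MTT reduction by cells treated for 48 h with test compounds diluted from a 0.1M DMSO stock. A 4 h incubation with 0.5 mg/ml MTT follows, with formazan taken up in DMSO.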

[2] = test system: MDAMB231 spheres (cancer stem cells); test: In vitro sphere-forming assay (cancer stem cells), MDAMB231 in Mammosphere media; settings: for 3D sphere count of MDAMB231 in Mammosphere media: 2000 cells/well, n = 6 ± S.D
Protocol: (§3) In Vitro Sphere-forming Assay: Sphere assay measures the ability of cancer stem cells (CSCs) to form spheres in specially designed serum-free medium.
Mammosphere Media Preparation (For 100 mL): 1 g methyl cellulose autoclaved with magnetic stirrer, 100 ml plain media (MEBM) was added and dissolved under magnetic stirring. After complete dissolution FGF—80 μL, EGF—40 μL, Penstrep—1 mL, Heparin—400 μL was added.
(§4) Procedure—The cells were trypsinised and made into single-cell suspension by passing through cell strainers (100 μl and 40 μl, respectively), The cells were diluted at a concentration of 2000 cells/100 μL and suspended in either Mammosphere (for breast cell lines) or Prostosphere (for prostate cell lines). 100 μL of this suspension was added into each well of 96-well suspension plates and incubated at 37 C, 50 CO2 for 24 hrs. Appropriate concentrations of the drugs (2 L) were added into respective wells with 100 μL of stem cell culture medium. Plates were incubated at 37° C., 50% CO2 for 72 hrs. After incubation, 2.5 μL of the respective drug concentration and 50 μL of stem cell culture medium were added into each well and the plates were further incubated at 37° C., 500 CO2 for 72 hrs. 3 μL of the respective drug concentration was added with 50 μL of stem cell culture medium again after incubation and plates were reincubated for 72 hrs at 37° C., 500 CO2. Number of primary spheres formed for each concentration were counted. The spheres were converted to 0 viability of spheres compared to untreated (Growth Control with DMSO, GCD).

[3] = test system: PC3 prostate cancer cell line; test: In vitro antiproliferative assay (MTT assay), PC3; assay type: cell-based; settings: 48 h, 48 hrs drug incubation, read-out: IC50 in micromolar, PC3 (MTT assay)
Outline: as §1

[4] = test system: MDAMB231 breast cancer cell line; test: In vitro antiproliferative assay (MTT assay), MDAMB231; assay type: cell-based; settings: 48 hrs drug incubation, read-out: IC50 in micromolar, MDAMB231 (MTT assay)
Outline: as §1

[5] = test system: MDAMB231 breast cancer cell line; test: Soft agar colony-formation assay, MDAMB231; assay type: cell-based; settings: 1 week, Alamar Blue, read-out: IC50 in micromolar, MDAMB231 (Soft Agar Assay)
Outline: (§2)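 Cells were embedded with drug in a top soft-agar layer over an agar base in 96-well format. Colonies grew for 1 week at 37 °C, 5% CO2, with medium feeding at day 3. Alamar Blue was added for 24 h, absorbance read at 630 nm, and log percent viability plotted against log drug concentration.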

[6] = test system: PC3 spheres (cancer stem cells); test: In vitro sphere-forming assay (cancer stem cells), PC3 in Prostosphere media; settings: for 3D sphere count of PC3 in Prostosphere media: 2000 cells/well, n = 6 ± S.D; for viability at 0.025 µM: read-out: % Viability of spheres (PC3), 0.025 uM; for viability at 0.25 µM: read-out: % Viability of spheres (PC3), 0.25 uM; for viability at 2.5 µM: read-out: % Viability of spheres (PC3), 2.5 uM; for viability at 25 µM: read-out: % Viability of spheres (PC3), 25 uM; for viability at 0.0025 µM: read-out: % Viability of spheres (PC3), 0.0025 uM
Description: as §3
(§5) Materials and Reagents:50×B27 Supplement (Life Technologies, Invitrogen, Catlog No.: 17502-044), Fibroblast Growth Factor (FGF) (Sigma-Aldrich, Catlog No.: F029125), Epidermal Growth Factor (EGF) (Sigma-Aldrich, Catlog No.: E9644), Insulin (Sigma, Catlog No.: 19278), Dulbecco's Modified Eagle Medium/F12 (HiMedia Catlog No.: AL139-6), Dulbecco's Phosphate Buffered Saline (HiMedia Catlog No.: TL1006), Trypan Blue (TC193), Prostate Epithelial Media (LONZA, Catlog No.: CC-3166) MEGM (LONZA, Catlog No.: CC-3051), Heparin (Sigma, Catlog No.: H3393), Penstrep (HiMedia, Catlog No.: A002)
(§6) Prostosphere Media Preparation (For 100 mL): 1 g methyl cellulose autoclaved with magnetic stirrer, 100 mL plain media (Prostate Epithelial Basal Medium) was added and dissolved, under magnetic stirring. After complete dissolution, Insulin—40 μL, B27—2 mL, EGF—80 μL, Penstrep—1 ml was added.
as §4

[7] = test system: PC3 prostate cancer cell line; test: Soft agar colony-formation assay, PC3; assay type: cell-based; settings: 1 week, Alamar Blue, read-out: IC50 in micromolar, PC3 (Soft Agar Assay)
Outline: as §2

[8] = test system: PC3 spheres (cancer stem cells); settings: human, 216 h
Description: as §3, §5, §6, §4

[9] = Homo sapiens, MDA-MB-231, read-out: % Viability of spheres (MDAMB231)
[10] = Homo sapiens, MDA-MB-231, 168 h

IC50 [3]	SMILES	3D sphere count of MDAMB231 in Mammosphere media ([2]; 0.025 uM)	3D sphere count of MDAMB231 in Mammosphere media ([2]; 0.25 uM)	3D sphere count of MDAMB231 in Mammosphere media ([2]; 2.5 uM)	3D sphere count of MDAMB231 in Mammosphere media ([2]; 25 uM)	viability at 0.025 µM [2, 9]	viability at 0.25 µM [2, 9]	viability at 2.5 µM [2, 9]	viability at 25 µM [2, 9]	3D sphere count of PC3 in Prostosphere media ([6]; 0.025 uM)	3D sphere count of PC3 in Prostosphere media ([6]; 0.25 uM)	3D sphere count of PC3 in Prostosphere media ([6]; 2.5 uM)	3D sphere count of PC3 in Prostosphere media ([6]; 25 uM)	viability at 0.025 µM ([6]; GCD = 100% viability)	viability at 0.25 µM ([6]; GCD = 100% viability)	viability at 2.5 µM ([6]; GCD = 100% viability)	viability at 25 µM ([6]; GCD = 100% viability)	IC50 ([1]; Homo sapiens, DU-145, 48 h)	3D sphere count of MDAMB231 in Mammosphere media ([2]; 0.0025 uM)	viability at 0.0025 µM [2, 9]	also measured
2.36 µM	CCOC(=O)N1CCN(CCCCCCOc2c3c(c(-c4ccc5c(c4)OCO5)c4cc(OC)c(OC)cc24)C(=O)OC3)CC1 [Formula III, ethyl 4-(6-(9-(benzo[d][1,3]dioxol-5-yl)-1,3-dihydro-6,7-dimethoxy-1-oxonaphtho[2,3-c]furan-4-yloxy)hexyl)piperazine-1-carboxylate]	41(±2)	35(±3)	30(±4)	17(±4)	53%	45%	39%	22%	49(±3)	38(±4)	29(±4)	23(±3)	63%	49%	37%	29%	–	–	–	IC50 [1]: 5.41 µM; 3D sphere count of MDAMB231 in Mammosphere media ([2]; 250 uM): 0(±0); viability at 250 µM [2, 9]: 0%; IC50 [4]: 6.68 µM; IC50 [5]: 2.53 µM; 3D sphere count of PC3 in Prostosphere media ([6]; 250 uM): 0(±0); viability at 250 µM ([6]; read-out: % Viability of spheres (PC3), 250 uM, GCD = 100% viability): 0%; IC50 [7]: 4.84 µM
3.98 µM	COc1cccc(-c2ccc(OCCN3CCOCC3)c3ccccc23)c1 [Formula XII, 4-(2-(1-(3-methoxyphenyl)naphthalen-4-yloxy)ethyl)morpholine]	41(±3)	34(±3)	30(±3)	9(±3)	52%	43%	38%	11%	42(±3)	36(±3)	28(±3)	9(±3)	51%	44%	34%	11%	2.59 µM	47(±4)	59%	IC50 ([4]; Homo sapiens, MDA-MB-231, 48 h): 2.7 µM; IC50 [5, 10]: 3.33 µM; 3D sphere count of PC3 in Prostosphere media ([6]; 0.0025 uM): 50(±3); viability at 0.0025 µM ([6]; GCD = 100% viability): 61%; IC50 ([7]; 168 h): 4.07 µM

SMILES	IC50 [3]	3D sphere count of MDAMB231 in Mammosphere media ([2]; 0.025 uM)	3D sphere count of MDAMB231 in Mammosphere media ([2]; 0.25 uM)	3D sphere count of MDAMB231 in Mammosphere media ([2]; 2.5 uM)	3D sphere count of MDAMB231 in Mammosphere media ([2]; 25 uM)	viability at 0.025 µM [2, 9]	viability at 0.25 µM [2, 9]	viability at 2.5 µM [2, 9]	viability at 25 µM [2, 9]	3D sphere count of PC3 in Prostosphere media ([6]; 0.025 uM)	3D sphere count of PC3 in Prostosphere media ([6]; 0.25 uM)	3D sphere count of PC3 in Prostosphere media ([6]; 2.5 uM)	3D sphere count of PC3 in Prostosphere media ([6]; 25 uM)	viability at 0.025 µM ([6]; GCD = 100% viability)	viability at 0.25 µM ([6]; GCD = 100% viability)	viability at 2.5 µM ([6]; GCD = 100% viability)	viability at 25 µM ([6]; GCD = 100% viability)	IC50 ([1]; Homo sapiens, DU-145, 48 h)	3D sphere count of MDAMB231 in Mammosphere media ([2]; 0.0025 uM)	viability at 0.0025 µM [2, 9]	also measured
COc1cc2c(OCCCCN3CCOCC3)c3c(c(-c4ccc5c(c4)OCO5)c2cc1OC)C(=O)OC3.Cl [Formula VII, 4-(4-morpholinobutoxy)-9-(benzo[d][1,3]dioxol-5-yl)-6,7-dimethoxynaphtho[2,3-c]furan-1(3H)-one Hydrochloride]	2.75 µM	47(±3)	36(±3)	29(±3)	21(±2)	66%	50%	41%	29%	46(±3)	41(±3)	37(±2)	32(±3)	–	–	–	–	2.34 µM	58(±3)	81%	% Viability of spheres (PC3) ([8]; 0.025 µM): 59(±3) %; % Viability of spheres (PC3) ([8]; 0.25 µM): 50(±2) %; % Viability of spheres (PC3) ([8]; 2.5 µM): 44(±2) %; % Viability of spheres (PC3) ([8]; 25 µM): 34(±3) %; IC50 ([4]; hydrochloride): 3.27 µM; IC50 [5, 10]: 2.05 µM; 3D sphere count of PC3 in Prostosphere media ([6]; 0.0025 uM): 56(±3); viability at 0.0025 µM ([6]; GCD = 100% viability): 69%; IC50 ([7]; 168 h): 2.7 µM
